# Data: the kinase profiling compilation of Christmann-Franck et al. (2016)
# Several values for one entry are separate records, joined by “and”; a condition that tells them apart may be missing. Equal values may be shown once.
# Legend:
# Assay in all cases: radiometric filter-binding kinase assay, Kinase HotSpot
# Conditions in all cases: compound 0.5 µM; ATP 10 µM
# [1] = target: NEK1 (human) (UniProt Q96PY6)
# [2] = target: MAPK1 (human) (UniProt P28482)
# [3] = target: CDC42BPA (human) (UniProt Q5VT25)
# [4] = target: JAK2 JH1 JH2 (human) (UniProt O60674)
# JAK2 JH1 JH2 (human), sequence (O60674 whole entry, looked up): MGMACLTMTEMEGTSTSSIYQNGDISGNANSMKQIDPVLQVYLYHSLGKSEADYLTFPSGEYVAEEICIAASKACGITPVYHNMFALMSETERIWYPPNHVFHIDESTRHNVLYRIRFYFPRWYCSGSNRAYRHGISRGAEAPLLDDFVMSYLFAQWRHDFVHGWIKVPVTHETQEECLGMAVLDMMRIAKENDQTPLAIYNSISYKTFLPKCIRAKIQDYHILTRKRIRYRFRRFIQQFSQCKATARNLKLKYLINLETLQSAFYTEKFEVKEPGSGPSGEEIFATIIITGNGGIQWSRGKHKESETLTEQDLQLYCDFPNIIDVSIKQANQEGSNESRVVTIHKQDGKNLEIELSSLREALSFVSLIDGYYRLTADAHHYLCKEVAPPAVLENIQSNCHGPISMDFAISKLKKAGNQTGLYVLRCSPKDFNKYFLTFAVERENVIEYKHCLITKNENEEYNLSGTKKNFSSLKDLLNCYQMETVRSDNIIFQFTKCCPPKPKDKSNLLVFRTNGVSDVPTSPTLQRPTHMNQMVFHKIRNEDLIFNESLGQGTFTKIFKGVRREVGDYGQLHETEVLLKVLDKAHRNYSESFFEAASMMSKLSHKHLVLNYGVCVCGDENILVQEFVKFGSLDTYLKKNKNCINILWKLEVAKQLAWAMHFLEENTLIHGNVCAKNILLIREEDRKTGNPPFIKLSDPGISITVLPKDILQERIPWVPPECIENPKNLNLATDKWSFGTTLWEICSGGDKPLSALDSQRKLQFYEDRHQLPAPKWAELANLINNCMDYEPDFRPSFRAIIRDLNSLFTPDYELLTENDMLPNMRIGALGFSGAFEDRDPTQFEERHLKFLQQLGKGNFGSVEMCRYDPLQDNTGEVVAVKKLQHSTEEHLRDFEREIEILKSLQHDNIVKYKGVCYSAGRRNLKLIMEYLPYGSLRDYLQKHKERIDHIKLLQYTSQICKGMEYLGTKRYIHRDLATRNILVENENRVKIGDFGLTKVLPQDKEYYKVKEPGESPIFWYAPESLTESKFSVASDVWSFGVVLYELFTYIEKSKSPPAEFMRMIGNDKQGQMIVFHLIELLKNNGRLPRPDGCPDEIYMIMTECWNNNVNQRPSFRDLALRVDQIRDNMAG
# [5] = target: INSRR (human) (UniProt P14616)
# INSRR (human), sequence (P14616 whole entry, looked up): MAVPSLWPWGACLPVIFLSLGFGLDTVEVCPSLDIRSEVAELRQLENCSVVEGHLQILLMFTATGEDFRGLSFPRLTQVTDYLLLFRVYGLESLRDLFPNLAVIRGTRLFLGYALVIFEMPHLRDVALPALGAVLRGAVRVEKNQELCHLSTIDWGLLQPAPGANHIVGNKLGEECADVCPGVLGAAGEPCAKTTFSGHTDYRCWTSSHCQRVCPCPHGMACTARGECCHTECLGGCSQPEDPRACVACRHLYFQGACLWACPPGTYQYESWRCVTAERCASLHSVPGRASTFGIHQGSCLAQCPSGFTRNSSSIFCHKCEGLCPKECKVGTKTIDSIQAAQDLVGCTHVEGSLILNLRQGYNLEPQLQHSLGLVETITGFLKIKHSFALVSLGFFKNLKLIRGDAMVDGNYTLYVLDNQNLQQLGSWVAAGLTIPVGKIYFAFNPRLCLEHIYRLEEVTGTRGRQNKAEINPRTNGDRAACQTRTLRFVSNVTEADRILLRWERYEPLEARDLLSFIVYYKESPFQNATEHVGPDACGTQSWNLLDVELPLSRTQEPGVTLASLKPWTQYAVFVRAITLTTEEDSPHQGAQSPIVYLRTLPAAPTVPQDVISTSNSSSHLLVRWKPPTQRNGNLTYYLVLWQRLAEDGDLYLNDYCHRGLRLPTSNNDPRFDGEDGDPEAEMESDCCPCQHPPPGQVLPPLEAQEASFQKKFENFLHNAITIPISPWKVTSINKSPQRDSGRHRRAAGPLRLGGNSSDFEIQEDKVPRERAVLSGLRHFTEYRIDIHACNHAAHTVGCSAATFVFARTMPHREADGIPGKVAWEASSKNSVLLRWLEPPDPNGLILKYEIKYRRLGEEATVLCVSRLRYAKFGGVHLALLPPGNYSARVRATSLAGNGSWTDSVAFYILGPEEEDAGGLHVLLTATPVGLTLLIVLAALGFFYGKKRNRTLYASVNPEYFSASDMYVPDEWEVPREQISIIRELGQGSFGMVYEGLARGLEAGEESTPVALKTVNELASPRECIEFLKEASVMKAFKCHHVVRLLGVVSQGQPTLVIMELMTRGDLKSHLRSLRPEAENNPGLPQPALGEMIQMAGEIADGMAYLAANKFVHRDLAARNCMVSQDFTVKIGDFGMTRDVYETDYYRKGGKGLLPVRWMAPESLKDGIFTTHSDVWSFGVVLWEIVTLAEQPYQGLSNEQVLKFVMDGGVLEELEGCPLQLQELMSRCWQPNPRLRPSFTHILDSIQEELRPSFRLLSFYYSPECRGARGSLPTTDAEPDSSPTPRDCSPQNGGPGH
# [6] = target: AKT3 (human) (UniProt Q9Y243)
# [7] = target: EPHA7 (human) (UniProt Q15375)
# [8] = target: PRKD3 (human) (UniProt O94806)
# [9] = target: MARK2 (human) (UniProt Q7KZI7)
# [10] = target: MAPK9 (human) (UniProt P45984)
# [11] = target: FGFR1 (human) (UniProt P11362)
# [12] = target: SRC (human) (UniProt P12931)
# [13] = target: NEK7 (human) (UniProt Q8TDX7)
# [14] = target: PLK3 (human) (UniProt Q9H4B4)
# [15] = target: TXK (human) (UniProt P42681)
# [16] = target: FGFR4 (human) (UniProt P22455)
# [17] = target: LYN (human) (UniProt P07948)
# [18] = target: CDK3 CCNE1 (human) (UniProt Q00526+P24864)
# [19] = target: FYN (human) (UniProt P06241)
# [20] = target: ITK (human) (UniProt Q08881)
# ITK (human), sequence (Q08881 whole entry, looked up): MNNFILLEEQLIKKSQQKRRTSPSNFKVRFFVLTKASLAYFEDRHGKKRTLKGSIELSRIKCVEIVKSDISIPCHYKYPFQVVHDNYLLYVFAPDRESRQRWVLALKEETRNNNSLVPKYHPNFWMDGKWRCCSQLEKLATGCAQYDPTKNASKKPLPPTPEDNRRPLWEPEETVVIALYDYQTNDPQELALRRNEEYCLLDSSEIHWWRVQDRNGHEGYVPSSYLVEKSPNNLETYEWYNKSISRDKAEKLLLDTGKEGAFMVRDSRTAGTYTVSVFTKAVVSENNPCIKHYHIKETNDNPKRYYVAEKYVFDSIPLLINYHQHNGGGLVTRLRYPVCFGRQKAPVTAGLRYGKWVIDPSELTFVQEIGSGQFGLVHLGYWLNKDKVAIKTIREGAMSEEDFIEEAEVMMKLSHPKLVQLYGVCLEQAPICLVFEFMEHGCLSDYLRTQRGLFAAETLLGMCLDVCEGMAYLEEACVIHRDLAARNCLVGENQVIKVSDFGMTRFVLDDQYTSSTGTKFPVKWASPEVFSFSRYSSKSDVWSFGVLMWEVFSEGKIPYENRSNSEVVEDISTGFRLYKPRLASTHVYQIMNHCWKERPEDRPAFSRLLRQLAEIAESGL
# [21] = target: ADRBK2 (human) (UniProt P35626)
# [22] = target: ALK (human) (UniProt Q9UM73)
# [23] = target: DSTYK (human) (UniProt Q6XUX3)
# [24] = target: GRK7 (human) (UniProt Q8WTQ7)
# [25] = target: RPS6KA6 KD1 KD2 (human) (UniProt Q9UK32)
# [26] = target: MKNK2 (human) (UniProt Q9HBH9)
# [27] = target: EPHB1 (human) (UniProt P54762)
# [28] = target: RPS6KA3 KD1 KD2 (human) (UniProt P51812)
# RPS6KA3 KD1 KD2 (human), sequence (P51812 whole entry, looked up): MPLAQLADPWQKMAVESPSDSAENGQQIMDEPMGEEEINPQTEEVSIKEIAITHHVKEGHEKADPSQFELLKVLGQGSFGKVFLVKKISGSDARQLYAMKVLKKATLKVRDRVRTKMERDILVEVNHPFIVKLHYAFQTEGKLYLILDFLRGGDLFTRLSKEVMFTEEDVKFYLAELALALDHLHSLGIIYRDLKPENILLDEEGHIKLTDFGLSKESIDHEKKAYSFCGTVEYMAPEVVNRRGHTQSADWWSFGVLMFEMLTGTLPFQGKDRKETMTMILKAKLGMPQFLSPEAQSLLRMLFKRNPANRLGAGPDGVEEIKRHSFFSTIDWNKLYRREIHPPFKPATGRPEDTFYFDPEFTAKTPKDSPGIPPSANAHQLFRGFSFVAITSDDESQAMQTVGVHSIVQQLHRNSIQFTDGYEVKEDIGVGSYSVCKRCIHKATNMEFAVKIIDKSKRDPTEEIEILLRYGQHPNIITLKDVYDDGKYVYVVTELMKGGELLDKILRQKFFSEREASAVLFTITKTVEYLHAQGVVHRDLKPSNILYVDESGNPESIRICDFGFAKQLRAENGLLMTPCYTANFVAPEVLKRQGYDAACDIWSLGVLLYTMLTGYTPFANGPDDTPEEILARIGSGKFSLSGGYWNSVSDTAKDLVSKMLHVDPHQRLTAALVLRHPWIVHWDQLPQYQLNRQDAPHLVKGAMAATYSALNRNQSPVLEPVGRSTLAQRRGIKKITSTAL
# [29] = target: TTK (human) (UniProt P33981)
# [30] = target: BRSK2 (human) (UniProt Q8IWQ3)
# [31] = target: STK11 (human) (UniProt Q15831)
# STK11 (human), sequence (Q15831 whole entry, looked up): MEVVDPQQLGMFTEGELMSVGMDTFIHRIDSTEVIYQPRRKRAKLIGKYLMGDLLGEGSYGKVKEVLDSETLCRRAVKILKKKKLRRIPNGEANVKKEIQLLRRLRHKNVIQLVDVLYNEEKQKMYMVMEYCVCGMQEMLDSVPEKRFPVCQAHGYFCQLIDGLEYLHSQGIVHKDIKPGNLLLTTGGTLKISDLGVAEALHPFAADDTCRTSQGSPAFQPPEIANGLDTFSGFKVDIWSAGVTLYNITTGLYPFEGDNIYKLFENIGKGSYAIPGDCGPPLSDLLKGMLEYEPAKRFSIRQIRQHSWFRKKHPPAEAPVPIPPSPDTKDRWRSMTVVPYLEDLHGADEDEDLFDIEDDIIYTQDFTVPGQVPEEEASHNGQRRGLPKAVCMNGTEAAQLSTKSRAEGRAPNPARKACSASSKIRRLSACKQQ
# [32] = target: PASK (human) (UniProt Q96RG2)
# [33] = target: CDK5 CDK5R1 p25 (human) (UniProt Q00535+Q15078)
# [34] = target: CAMK1G (human) (UniProt Q96NX5)
# CAMK1G (human), sequence (Q96NX5 whole entry, looked up): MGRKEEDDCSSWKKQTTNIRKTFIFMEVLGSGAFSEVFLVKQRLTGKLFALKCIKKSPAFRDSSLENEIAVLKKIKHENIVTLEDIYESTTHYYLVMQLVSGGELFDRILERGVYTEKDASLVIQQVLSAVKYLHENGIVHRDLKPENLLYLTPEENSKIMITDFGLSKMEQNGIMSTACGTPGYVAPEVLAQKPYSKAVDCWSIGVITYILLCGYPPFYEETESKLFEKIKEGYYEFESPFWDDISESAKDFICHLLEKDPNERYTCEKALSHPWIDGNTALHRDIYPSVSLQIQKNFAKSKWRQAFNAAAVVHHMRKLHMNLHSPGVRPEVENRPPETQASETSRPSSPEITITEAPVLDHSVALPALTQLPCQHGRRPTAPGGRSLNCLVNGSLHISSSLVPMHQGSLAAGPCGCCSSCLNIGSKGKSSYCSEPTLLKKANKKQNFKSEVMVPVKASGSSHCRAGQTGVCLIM
# [35] = target: FES (human) (UniProt P07332)
# [36] = target: PRKCG (human) (UniProt P05129)
# [37] = target: TEC (human) (UniProt P42680)
# [38] = target: SGK3 (human) (UniProt Q96BR1)
# [39] = target: CAMKK2 (human) (UniProt Q96RR4)
# [40] = target: DDR2 (human) (UniProt Q16832)
# [41] = target: CSK (human) (UniProt P41240)
# [42] = target: PAK1 (human) (UniProt Q13153)
# MAPK1 (human), sequence (P28482 whole entry, looked up): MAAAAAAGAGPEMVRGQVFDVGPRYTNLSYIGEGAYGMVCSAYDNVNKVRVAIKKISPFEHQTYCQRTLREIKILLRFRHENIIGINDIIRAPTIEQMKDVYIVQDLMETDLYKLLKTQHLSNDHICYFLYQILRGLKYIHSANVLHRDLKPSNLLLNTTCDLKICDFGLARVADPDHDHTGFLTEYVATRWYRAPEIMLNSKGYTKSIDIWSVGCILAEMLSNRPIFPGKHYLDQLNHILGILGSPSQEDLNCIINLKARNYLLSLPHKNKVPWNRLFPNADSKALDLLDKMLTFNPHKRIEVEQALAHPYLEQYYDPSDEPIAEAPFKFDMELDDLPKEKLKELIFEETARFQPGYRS
smiles,measurement,setting,value
CC(C)n1cnc2c(Nc3cccc(Cl)c3)nc(NCCO)nc21,residual activity,[1],90.4%
same,residual activity,[2],107%
same,residual activity,[3],83.9%
same,residual activity,[4],101%
same,residual activity,[5],82.5%
same,residual activity,[6],99.9%
same,residual activity,[7],87.1%
same,residual activity,[8],88.4%
same,residual activity,[9],98.7%
same,residual activity,[10],101%
same,residual activity,[11],84.2%
same,residual activity,[12],68.9%
same,residual activity,[13],93.9%
same,residual activity,[14],48.5%
same,residual activity,[15],78.1%
same,residual activity,[16],86.5%
same,residual activity,[17],80.2% and 94.6%
same,residual activity,[18],76.9%
same,residual activity,[19],60.4%
same,residual activity,[20],96%
same,residual activity,[21],90.5%
same,residual activity,[22],91.8%
same,residual activity,[23],97%
same,residual activity,[24],88.7%
same,residual activity,[25],74.8%
same,residual activity,[26],94.8%
same,residual activity,[27],76.9%
same,residual activity,[28],60.1%
same,residual activity,[29],82.5%
same,residual activity,[30],95%
same,residual activity,[31],76.1%
same,residual activity,[32],92.7%
same,residual activity,[33],26.2%
same,residual activity,[34],98.7%
same,residual activity,[35],66.2%
same,residual activity,[36],93.6%
same,residual activity,[37],113%
same,residual activity,[38],97.1%
same,residual activity,[39],68.2%
same,residual activity,[40],93.3%
same,residual activity,[41],98.2%
same,residual activity,[42],97.1%
Cc1cc2ncc(-c3ccccc3)nc2cc1C,residual activity,[1],96.1%
same,residual activity,[2],88%
same,residual activity,[3],81.2%
same,residual activity,[4],97.3%
same,residual activity,[5],95.5%
same,residual activity,[6],91.8%
same,residual activity,[7],96.6%
same,residual activity,[8],92.2%
same,residual activity,[9],84.5%
same,residual activity,[10],104%
same,residual activity,[11],91.9%
same,residual activity,[12],104%
same,residual activity,[13],102%
same,residual activity,[14],90.1%
same,residual activity,[15],99.5%
same,residual activity,[16],77.2%
same,residual activity,[17],100% and 98.2%
same,residual activity,[18],96.7%
same,residual activity,[19],99.4%
same,residual activity,[20],100%
same,residual activity,[21],87.4%
same,residual activity,[22],98%
same,residual activity,[23],95.5%
same,residual activity,[24],102%
same,residual activity,[25],98.2%
same,residual activity,[26],94.8%
same,residual activity,[27],91.1%
same,residual activity,[28],94.2%
same,residual activity,[29],91%
same,residual activity,[30],102%
same,residual activity,[31],94%
same,residual activity,[32],82.1%
same,residual activity,[33],96.6%
same,residual activity,[34],101%
same,residual activity,[35],97.3%
same,residual activity,[36],96.9%
same,residual activity,[37],98.1%
same,residual activity,[38],101%
same,residual activity,[39],91.8%
same,residual activity,[40],95.7%
same,residual activity,[41],96.5%
same,residual activity,[42],97.8%
O=c1cc(N2CCNCC2)oc2c(-c3ccccc3)cccc12,residual activity,[1],82.8%
same,residual activity,[2],65.4%
same,residual activity,[3],107%
same,residual activity,[4],104%
same,residual activity,[5],89.2%
same,residual activity,[6],102%
same,residual activity,[7],102%
same,residual activity,[8],88.6%
same,residual activity,[9],105%
same,residual activity,[10],90.4%
same,residual activity,[11],110%
same,residual activity,[12],91.2%
same,residual activity,[13],95.7%
same,residual activity,[14],104%
same,residual activity,[15],95.4%
same,residual activity,[16],106%
same,residual activity,[17],101% and 95.8%
same,residual activity,[18],96.9%
same,residual activity,[19],104%
same,residual activity,[20],88.1%
same,residual activity,[21],97.4%
same,residual activity,[22],83.8%
same,residual activity,[23],92.8%
same,residual activity,[24],114%
same,residual activity,[25],99%
same,residual activity,[26],107%
same,residual activity,[27],94.8%
same,residual activity,[28],101%
same,residual activity,[29],91.4%
same,residual activity,[30],103%
same,residual activity,[31],101%
same,residual activity,[32],93%
same,residual activity,[33],94.5%
same,residual activity,[34],94.7%
same,residual activity,[35],95.4%
same,residual activity,[36],96.1%
same,residual activity,[37],99.8%
same,residual activity,[38],111%
same,residual activity,[39],83.7%
same,residual activity,[40],95.5%
same,residual activity,[41],89.7%
same,residual activity,[42],99%
O=C1Nc2ccccc2/C1=C\c1c(Cl)[nH]c2ccccc12,residual activity,[1],96.7%
same,residual activity,[2],96.4%
same,residual activity,[3],95.7%
same,residual activity,[4],103%
same,residual activity,[5],93.7%
same,residual activity,[6],93.6%
same,residual activity,[7],95.3%
same,residual activity,[8],87.7%
same,residual activity,[9],94.7%
same,residual activity,[10],101%
same,residual activity,[11],92%
same,residual activity,[12],78.5%
same,residual activity,[13],97.6%
same,residual activity,[14],101%
same,residual activity,[15],99.6%
same,residual activity,[16],96.9%
same,residual activity,[17],93.6% and 99.7%
same,residual activity,[18],94.1%
same,residual activity,[19],101%
same,residual activity,[20],104%
same,residual activity,[21],90.1%
same,residual activity,[22],97.9%
same,residual activity,[23],95.7%
same,residual activity,[24],106%
same,residual activity,[25],91.2%
same,residual activity,[26],93.5%
same,residual activity,[27],90.8%
same,residual activity,[28],82.9%
same,residual activity,[29],101%
same,residual activity,[30],96.2%
same,residual activity,[31],83.4%
same,residual activity,[32],89.3%
same,residual activity,[33],86%
same,residual activity,[35],96.6%
same,residual activity,[36],89.2%
same,residual activity,[37],124%
same,residual activity,[38],102%
same,residual activity,[39],97.8%
same,residual activity,[40],92.7%
same,residual activity,[41],101%
same,residual activity,[42],92.8%
